The values below come from PubChem BioAssay (NCI).

Values joined by “and” are separate entries in the source; they are usually repeats but may differ in a detail not shown here. Equal values may be shown once.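 Five concentrations, 48 hours, 96-well plates. At the GI50, growth is halved. TGI is the concentration that stops growth completely.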

Some test systems named below: A498 renal; HCC-2998 colon; LOX IMVI melanoma; MALME-3M melanoma; MDA-MB-435; NCI-H23 lung; NCI-H460 lung; PC-3 prostate; RXF 393 renal; SF-295 CNS.
Assay in all cases: NCI tumour cell line growth inhibition, 48 h

For the compound `COc1ccccc1-c1cc2c3c(nc4ccccc42)C(=O)c2cccnc2-c3n1`, the GI50 in the assay with A498 renal is 18.9 µM; in the assay on HCC-2998 colon it was 14.8 µM; with LOX IMVI melanoma, 2.13 µM; with MALME-3M melanoma it was 15.4 µM; in the assay on MDA-MB-435, 12.5 µM; with NCI-H23 lung, 9.06 µM. The GI50 with NCI-H460 lung was 11.5 µM; in the assay with PC-3 prostate, 14.9 µM; with RXF 393 renal it was 16.7 µM; in the assay with SF-295 CNS, 17.4 µM. Moreover, the TGI amounted to 47.4 µM in the assay with A498 renal; 30.6 µM in the assay with HCC-2998 colon; 4.89 µM with LOX IMVI melanoma; 28.7 µM in the assay on MALME-3M melanoma; 33.3 µM with MDA-MB-435; 25.3 µM in the assay with NCI-H23 lung. Also, the TGI was determined as 26 µM with NCI-H460 lung, 38.2 µM in the assay on PC-3 prostate, 46.8 µM in the assay on RXF 393 renal and 50.8 µM in the assay on SF-295 CNS.

As for `CCN(CC)c1ccc(NC(C(=O)c2ccccc2)c2ccccc2)cc1` (stereo unspecified), the GI50 is 2.71 µM in the assay on A498 renal; 2.81 µM in the assay with HCC-2998 colon; 1.57 µM in the assay on LOX IMVI melanoma; 2.76 µM with MALME-3M melanoma; 2.25 µM in the assay with MDA-MB-435; 2.15 µM in the assay on NCI-H23 lung. In addition, the GI50 was 3.08 µM with NCI-H460 lung, 3.62 µM with PC-3 prostate, 1.7 µM with RXF 393 renal and 3.34 µM in the assay on SF-295 CNS. For the same compound, the TGI was determined as 10.1 µM in the assay with A498 renal; 8.62 µM in the assay on HCC-2998 colon; 3 µM in the assay with LOX IMVI melanoma; 7.44 µM with MALME-3M melanoma; 6.05 µM with MDA-MB-435; 4.67 µM in the assay on NCI-H23 lung. Moreover, the TGI in the assay on NCI-H460 lung was found to be 11.4 µM; in the assay on PC-3 prostate, 16.8 µM; in the assay with RXF 393 renal it was 3.47 µM; in the assay on SF-295 CNS, 12.6 µM.

Regarding `C[C@@H]1O[C@@H](O[C@H]2C[C@@H](O)[C@]3(CO)C4C(CC[C@]3(O)C2)[C@@]2(O)CC[C@H](C3=CC(=O)OC3)[C@@]2(C)C[C@H]4O)[C@H](O)[C@H](O)[C@H]1O` (stereo partly specified), the GI50 in the assay with A498 renal was 0.0387 µM; in the assay with HCC-2998 colon, 0.088 µM; in the assay on LOX IMVI melanoma, 0.0233 µM; in the assay on MALME-3M melanoma, 0.0197 µM; in the assay on MDA-MB-435, 0.0595 µM; with NCI-H23 lung, 0.0163 µM. Further, the GI50 in the assay with NCI-H460 lung was 0.0133 µM; in the assay with PC-3 prostate it was 0.0214 µM; with RXF 393 renal, 0.0115 µM; in the assay with SF-295 CNS it was 0.0196 µM. In addition, the TGI in the assay on A498 renal was 0.262 µM; in the assay on HCC-2998 colon, 0.238 µM; in the assay on LOX IMVI melanoma, 0.0882 µM; in the assay on MALME-3M melanoma, 0.0828 µM; with MDA-MB-435, 0.134 µM; in the assay with NCI-H23 lung, 0.0602 µM. In addition, the TGI is 0.0376 µM in the assay with NCI-H460 lung, 0.113 µM in the assay on PC-3 prostate, 0.0291 µM in the assay with RXF 393 renal and 0.098 µM in the assay with SF-295 CNS.

Take `COC1/C=C/O[C@@]2(C)Oc3c(C)c(O)c4c(O)c(cc(O)c4c3C2=O)NC(=O)/C(C)=C\C=C\[C@H](C)C(O)[C@@H](C)[C@@H](O)[C@@H](C)[C@H](OC(C)=O)[C@@H]1C` (stereo partly specified): the TGI in the assay on A498 renal was 96.9 µM; with HCC-2998 colon, 29.2 µM and 49.2 µM; in the assay on LOX IMVI melanoma, 26.1 µM and 29.5 µM; with MALME-3M melanoma it was 25.9 µM and 77.9 µM; with MDA-MB-435 it was 31.6 µM and 40.4 µM; with NCI-H23 lung it was 33.8 µM. Also, the TGI in the assay with NCI-H460 lung is 37 µM and 79.8 µM; in the assay on PC-3 prostate, 20.4 µM and 34 µM; in the assay with RXF 393 renal it was 29.9 µM and 25.7 µM; in the assay with SF-295 CNS, 196 µM. For the same compound, the GI50 in the assay with HCC-2998 colon was 15.8 µM; in the assay with MALME-3M melanoma it was 12.8 µM; in the assay on MDA-MB-435 it was 17.2 µM; in the assay on NCI-H460 lung, 18.8 µM and 32.7 µM; with PC-3 prostate, 7.74 µM; in the assay on RXF 393 renal, 14 µM.

Regarding `O=C1Nc2ccc(F)c3c(OCCO)cc(-c4ccc[nH]4)c1c23`, the GI50 was 0.896 µM with A498 renal; 2.63 µM in the assay with HCC-2998 colon; 1.19 µM with LOX IMVI melanoma; 3.47 µM in the assay on MALME-3M melanoma; 1.46 µM in the assay on MDA-MB-435; 1.27 µM with NCI-H23 lung. In addition, the GI50 was 0.927 µM with NCI-H460 lung, 1.32 µM with PC-3 prostate, 0.987 µM in the assay on RXF 393 renal and 2.43 µM in the assay with SF-295 CNS. Also, the TGI is 4.24 µM in the assay with A498 renal; 10.1 µM in the assay with HCC-2998 colon; 5.38 µM with LOX IMVI melanoma; 11.5 µM with MALME-3M melanoma; 14.1 µM in the assay on MDA-MB-435; 8.05 µM with NCI-H23 lung. For the same compound, the TGI in the assay with NCI-H460 lung is 5.14 µM; with PC-3 prostate, 10.3 µM; with RXF 393 renal, 4.98 µM; in the assay with SF-295 CNS it was 18.9 µM.

Turning to `O=C1Nc2ccc(Cl)cc2/C1=C\c1c(-c2ccc(F)cc2)nc2ccccn12`, the GI50 in the assay with A498 renal was 1.21 µM; with HCC-2998 colon, 2.01 µM; with LOX IMVI melanoma, 2.06 µM; with MALME-3M melanoma, 3.8 µM; in the assay with MDA-MB-435, 1.99 µM; with NCI-H23 lung, 2.37 µM. Moreover, the GI50 with NCI-H460 lung is 2.35 µM; in the assay on PC-3 prostate, 2.43 µM; in the assay on RXF 393 renal, 1.87 µM; in the assay with SF-295 CNS it was 1.87 µM. In addition, the TGI was found to be 4.51 µM in the assay with A498 renal; 5.1 µM with HCC-2998 colon; 4.89 µM in the assay with LOX IMVI melanoma; 14.8 µM in the assay on MALME-3M melanoma; 5.03 µM in the assay with MDA-MB-435; 7.57 µM in the assay on NCI-H23 lung. Also, the TGI with NCI-H460 lung stood at 5.89 µM; in the assay on PC-3 prostate it was 8.36 µM; with RXF 393 renal, 4.2 µM; with SF-295 CNS, 4.23 µM.

As for `COc1ccc2c(c1)O/C(=C\c1cccc(OCC(=O)Nc3nc4ccccc4s3)c1)C2=O`, the GI50 in the assay with A498 renal was 10.1 µM; in the assay on HCC-2998 colon it was over 100 µM; in the assay on LOX IMVI melanoma it was 0.328 µM; with MALME-3M melanoma, 2 µM; in the assay on MDA-MB-435, 14.2 µM; in the assay with NCI-H23 lung it was 3.58 µM. In addition, the GI50 with NCI-H460 lung is over 64.4 µM; in the assay with PC-3 prostate, 8.46 µM; in the assay with RXF 393 renal, 1.96 µM; with SF-295 CNS, 11.4 µM. For the same compound, the TGI in the assay on A498 renal is over 93.3 µM; with HCC-2998 colon it was over 100 µM; in the assay with LOX IMVI melanoma, 1.05 µM; in the assay on MALME-3M melanoma, 4.37 µM; in the assay with MDA-MB-435, over 100 µM; with NCI-H23 lung, over 100 µM. Also, the TGI in the assay on NCI-H460 lung was over 100 µM; with PC-3 prostate, over 100 µM; in the assay on RXF 393 renal, 3.99 µM; with SF-295 CNS, over 71.7 µM.
